According to PubChem BioAssay AID248 (DTP/NCI, 2004):
Several values for one entry are separate records, joined by “and”; a condition that tells them apart may be missing. Equal entries are not always repeated. Toxic doses and inconclusive results are not listed.

Test system: L1210 leukemia ip in BDF1 mice, survival T/C
Experiment: NCI In Vivo Anticancer Drug Screen. Data for tumor model L1210 Leukemia (intraperitoneal) in B6D2F1 (BDF1) mice
Settings: endpoint: mean survival time, higher = longer survival
Summary of the method: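 Read-out is survival time, reported as the treated-group measurement over the vehicle-control measurement.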

[1] = dose: 6.25 mg/kg/injection, schedule: Q04DX003 (ip), vehicle: other
[2] = dose: 12.5 mg/kg/injection, schedule: Q04DX003 (ip), vehicle: other
[3] = dose: 25.0 mg/kg/injection, schedule: Q04DX003 (ip), vehicle: other
[4] = dose: 50.0 mg/kg/injection, schedule: Q04DX003 (ip), vehicle: Klucel (hydroxypropylcellulose) (HPC)
[5] = dose: 100.0 mg/kg/injection, schedule: Q01DX001 (ip), vehicle: carboxymethylcellulose (CMC)
[6] = dose: 100.0 mg/kg/injection, schedule: Q04DX003 (ip), vehicle: Klucel (hydroxypropylcellulose) (HPC)
[7] = dose: 200.0 mg/kg/injection, schedule: Q01DX001 (ip), vehicle: carboxymethylcellulose (CMC)
[8] = dose: 200.0 mg/kg/injection, schedule: Q04DX003 (ip), vehicle: Klucel (hydroxypropylcellulose) (HPC)
[9] = dose: 400.0 mg/kg/injection, schedule: Q01DX001 (ip), vehicle: carboxymethylcellulose (CMC)
[10] = dose: 400.0 mg/kg/injection, schedule: Q04DX003 (ip), vehicle: Klucel (hydroxypropylcellulose) (HPC)
[11] = dose: 100.0 mg/kg/injection, schedule: Q01DX001 (ip), vehicle: saline
[12] = dose: 200.0 mg/kg/injection, schedule: Q01DX001 (ip), vehicle: saline
[13] = dose: 400.0 mg/kg/injection, schedule: Q01DX001 (ip), vehicle: saline
[14] = dose: 400.0 mg/kg/injection, schedule: Q04DX002 (ip), vehicle: saline with Tween-80
[15] = dose: 50.0 mg/kg/injection, schedule: Q01DX009 (ip), vehicle: Klucel (hydroxypropylcellulose) (HPC)
[16] = dose: 100.0 mg/kg/injection, schedule: Q01DX009 (ip), vehicle: Klucel (hydroxypropylcellulose) (HPC)
[17] = dose: 200.0 mg/kg/injection, schedule: Q01DX009 (ip), vehicle: Klucel (hydroxypropylcellulose) (HPC)

With `O=C(C=C(C(F)(F)F)C(F)(F)F)c1ccc(F)cc1` the T/C (dose: 6.25 mg/kg/injection, schedule: Q01DX009 (ip), vehicle: other) was 91 % of control, the T/C [1] was 95 % of control and the T/C (dose: 12.5 mg/kg/injection, schedule: Q01DX009 (ip), vehicle: other) was 92 % of control. The T/C [2] was 109 % of control, the T/C (dose: 25.0 mg/kg/injection, schedule: Q01DX009 (ip), vehicle: other) was 103 % of control and the T/C [3] was 97 % of control and 103 % of control.
With `Cc1c2ccn(CCCCCCCCn3ccc4c(C)c5nc6ccccc6c5c(C)c4c3)cc2c(C)c2c1nc1ccccc12` the T/C (dose: 0.78 mg/kg/injection, schedule: Q04DX003 (ip), vehicle: other) was 98 % of control, the T/C (dose: 1.56 mg/kg/injection, schedule: Q04DX003 (ip), vehicle: other) was 104 % of control and the T/C (dose: 3.13 mg/kg/injection, schedule: Q04DX003 (ip), vehicle: other) was 104 % of control. For the same molecule, the T/C [1] was 112 % of control, the T/C [2] was 118 % of control and the T/C [3] was 115 % of control. For the same molecule, the T/C (dose: 50.0 mg/kg/injection, schedule: Q04DX003 (ip), vehicle: other) was 98 % of control and the T/C (dose: 100.0 mg/kg/injection, schedule: Q04DX003 (ip), vehicle: other) was 109 % of control.
For `O=C(O)c1cccc([N+](=O)[O-])c1[N+](=O)[O-]`, the T/C [4] was 94 % of control, the T/C [5] was 95 % of control and the T/C [6] was 92 % of control. The T/C [7] was 93 % of control, the T/C [8] was 103 % of control and the T/C [9] was 93 % of control. For the same molecule, the T/C [10] was 92 % of control.
With `Oc1c(CN2CCOCC2)cc(N=Nc2ccccc2)c(O)c1CN1CCOCC1` the T/C [11] was 88 % of control, the T/C [12] was 104 % of control and the T/C [13] was 88 % of control.
With `S=P(c1ccccc1)(c1ccccc1)N1CCCCC1` the T/C (dose: 100.0 mg/kg/injection, schedule: Q04DX002 (ip), vehicle: saline with Tween-80) was 96 % of control, the T/C (dose: 200.0 mg/kg/injection, schedule: Q04DX002 (ip), vehicle: saline with Tween-80) was 93 % of control and the T/C [14] was 93 % of control.
With `O=C(O)c1cc(-c2ccc(Cl)cc2)nc2c(Cl)cccc12` the T/C (dose: 20.0 mg/kg/injection, schedule: Q01DX009 (ip), vehicle: Klucel (hydroxypropylcellulose) (HPC)) was 95 % of control, the T/C (dose: 20.0 mg/kg/injection, schedule: Q04DX003 (ip), vehicle: Klucel (hydroxypropylcellulose) (HPC)) was 107 % of control and the T/C (dose: 40.0 mg/kg/injection, schedule: Q01DX009 (ip), vehicle: Klucel (hydroxypropylcellulose) (HPC)) was 103 % of control. For the same molecule, the T/C (dose: 40.0 mg/kg/injection, schedule: Q04DX003 (ip), vehicle: Klucel (hydroxypropylcellulose) (HPC)) was 100 % of control, the T/C (dose: 80.0 mg/kg/injection, schedule: Q01DX009 (ip), vehicle: Klucel (hydroxypropylcellulose) (HPC)) was 108 % of control and the T/C (dose: 80.0 mg/kg/injection, schedule: Q04DX003 (ip), vehicle: Klucel (hydroxypropylcellulose) (HPC)) was 97 % of control.
`O=C(O)c1c(Cl)cccc1[N+](=O)[O-]` was tested, and the T/C [11] was 100 % of control, the T/C [12] was 96 % of control and the T/C [13] was 102 % of control.
`CCN(CC)C(=O)C1C2C=CC(CC2)C1C(=O)N(CC)CC` (centres undefined) was tested, and the T/C (dose: 100.0 mg/kg/injection, schedule: Q04DX003 (ip), vehicle: saline) was 100 % of control, the T/C (dose: 200.0 mg/kg/injection, schedule: Q04DX003 (ip), vehicle: saline) was 96 % of control and the T/C (dose: 400.0 mg/kg/injection, schedule: Q04DX003 (ip), vehicle: saline) was 96 % of control.
For `O=C1C(NCC(O)CO)=C(N2CC2)C(=O)C(NCC(O)CO)=C1N1CC1` (centres undefined), the T/C (dose: 0.12 mg/kg/injection, schedule: Q04DX003 (ip), vehicle: saline) was 106 % of control, the T/C (dose: 0.25 mg/kg/injection, schedule: Q01DX009 (ip), vehicle: saline) was 119 % of control and 120 % of control and the T/C (dose: 0.25 mg/kg/injection, schedule: Q04DX003 (ip), vehicle: saline) was 106 % of control. For the same molecule, the T/C (dose: 0.5 mg/kg/injection, schedule: Q01DX009 (ip), vehicle: saline) was 120 % of control and 121 % of control, the T/C (dose: 0.5 mg/kg/injection, schedule: Q04DX003 (ip), vehicle: saline) was 112 % of control and the T/C (dose: 1.0 mg/kg/injection, schedule: Q01DX009 (ip), vehicle: saline) was 156 % of control. The T/C (dose: 1.0 mg/kg/injection, schedule: Q04DX003 (ip), vehicle: saline) was 104 % of control, the T/C (dose: 2.0 mg/kg/injection, schedule: Q01DX001 (ip), vehicle: saline) was 189 % of control and the T/C (dose: 2.0 mg/kg/injection, schedule: Q01DX009 (ip), vehicle: saline) was 216 % of control and 233 % of control. The T/C (dose: 2.0 mg/kg/injection, schedule: Q04DX003 (ip), vehicle: saline) was 161 % of control, the T/C (dose: 4.0 mg/kg/injection, schedule: Q01DX001 (ip), vehicle: saline) was 153 % of control and the T/C (dose: 4.0 mg/kg/injection, schedule: Q01DX009 (ip), vehicle: saline) was 199 % of control and 306 % of control. For the same molecule, the T/C (dose: 4.0 mg/kg/injection, schedule: Q04DX003 (ip), vehicle: saline) was 173 % of control and 190 % of control, the T/C (dose: 8.0 mg/kg/injection, schedule: Q01DX009 (ip), vehicle: saline) was 98 % of control and 102 % of control and the T/C (dose: 8.0 mg/kg/injection, schedule: Q04DX003 (ip), vehicle: saline) was 179 % of control.
`CCOP(=O)(Nc1ccc2c(c1)Cc1cc([N+](=O)[O-])ccc1-2)OCC` was tested, and the T/C (dose: 50.0 mg/kg/injection, schedule: Q01DX001 (ip), vehicle: carboxymethylcellulose (CMC)) was 97 % of control, the T/C [5] was 94 % of control and the T/C [7] was 92 % of control. For the same molecule, the T/C [9] was 94 % of control.
In the case of `c1ccc(C(c2ccccc2)[Si](c2ccccc2)(c2ccccc2)C(c2ccccc2)c2ccccc2)cc1`, the T/C (dose: 25.6 mg/kg/injection, schedule: Q04DX002 (ip), vehicle: saline with Tween-80) was 107 % of control, the T/C [15] was 90 % of control and the T/C (dose: 64.0 mg/kg/injection, schedule: Q04DX002 (ip), vehicle: saline with Tween-80) was 100 % of control. The T/C [16] was 86 % of control, the T/C (dose: 100.0 mg/kg/injection, schedule: Q04DX003 (ip), vehicle: saline with Tween-80) was 94 % of control and the T/C (dose: 160.0 mg/kg/injection, schedule: Q04DX002 (ip), vehicle: saline with Tween-80) was 100 % of control. The T/C [17] was 88 % of control, the T/C (dose: 200.0 mg/kg/injection, schedule: Q04DX003 (ip), vehicle: saline with Tween-80) was 96 % of control and the T/C [14] was 110 % of control. For the same molecule, the T/C (dose: 400.0 mg/kg/injection, schedule: Q04DX003 (ip), vehicle: saline with Tween-80) was 91 % of control.
For `ClC1(Cl)C2(c3ccccc3)OC(c3ccccc3)(c3ccccc32)C1(Cl)Cl`, the T/C (dose: 100.0 mg/kg/injection, schedule: Q04DX002 (ip), vehicle: Klucel (hydroxypropylcellulose) (HPC)) was 97 % of control, the T/C (dose: 200.0 mg/kg/injection, schedule: Q04DX002 (ip), vehicle: Klucel (hydroxypropylcellulose) (HPC)) was 97 % of control and the T/C (dose: 400.0 mg/kg/injection, schedule: Q04DX002 (ip), vehicle: Klucel (hydroxypropylcellulose) (HPC)) was 102 % of control.
In the case of `NNC(=O)c1nc2ccccc2s1`, the T/C (dose: 75.0 mg/kg/injection, schedule: Q01DX001 (ip), vehicle: other) was 96 % of control and the T/C (dose: 150.0 mg/kg/injection, schedule: Q01DX001 (ip), vehicle: other) was 98 % of control.
With `C(=N/N(Cc1ccccc1)Cc1ccccc1)/c1ccccc1` the T/C [11] was 94 % of control, the T/C [12] was 103 % of control and the T/C [13] was 101 % of control.
In the case of `CCCCC(CC)COC(=O)/C=C/C(=O)OCC(CC)CCCC` (centres undefined), the T/C [16] was 96 % of control, the T/C [6] was 101 % of control and the T/C [17] was 107 % of control. The T/C [8] was 95 % of control, the T/C (dose: 400.0 mg/kg/injection, schedule: Q01DX009 (ip), vehicle: Klucel (hydroxypropylcellulose) (HPC)) was 107 % of control and the T/C [10] was 93 % of control.
With `COB(OC)OC` the T/C (dose: 50.0 mg/kg/injection, schedule: Q01DX001 (ip), vehicle: saline) was 98 % of control, the T/C [11] was 95 % of control and the T/C [12] was 101 % of control. For the same molecule, the T/C [13] was 95 % of control.
With `Cc1cccc(NC(=O)Nc2cccc3ccccc23)c1C` the T/C (dose: 25.0 mg/kg/injection, schedule: Q01DX009 (ip), vehicle: Klucel (hydroxypropylcellulose) (HPC)) was 92 % of control, the T/C (dose: 25.0 mg/kg/injection, schedule: Q04DX003 (ip), vehicle: Klucel (hydroxypropylcellulose) (HPC)) was 94 % of control and the T/C [15] was 96 % of control. For the same molecule, the T/C [4] was 89 % of control, the T/C [16] was 92 % of control and the T/C [6] was 91 % of control. The T/C [8] was 93 % of control and the T/C [10] was 91 % of control.
